Reference: patent publication US20200237742A1, “Serdexmethylphenidate Conjugates, Compositions And Methods Of Use Thereof” (priority 2018, published 2020)
Structures can show the parent of a compound that is named as a salt.

System: healthy, nondependent, recreational stimulant users with intranasal insufflation experience
Assay: Intranasal study, treatment-emergent adverse events (Table 54)
Experimental: The study consisted of a Screening Period, an in-clinic Drug Discrimination Phase, a Treatment Phase, and a Follow-Up Visit.
All subjects were required to fast for at least 8 hours prior to each dose of study drug until approximately 4 hours after each dose. Abuse potential measures and pharmacokinetic samples were collected at different times after the administration of study drug. Subjects who successfully completed the Drug Discrimination Phase and who qualified for the Treatment Phase remained as inpatients to enter the Treatment Phase.

[1] = intranasal, d-MPH HCl 40 mg, SDX Cl 80 mg, N = 46 each

SMILES: COC(=O)[C@H](c1ccccc1)[C@H]1CCCCN1 [d-methylphenidate hydrochloride, d-threo-methylphenidate hydrochloride]
- typical stimulant-related adverse events (euphoric mood, hypervigilance, cardiac palpitations and tachycardia) (intranasal d-MPH HCl compared to intranasal SDX Cl): occurred more often
- Abdominal distension, subjects with event [1]: 0 n (%)
- Abdominal pain, number of occurrences [1]: 1 E
- Abdominal pain, subjects with event [1]: 1 (2.2%) n (%)
- Agitation, subjects with event [1]: 0 n (%)
- Anxiety, number of occurrences [1]: 2 E
- Anxiety, subjects with event [1]: 2 (4.3%) n (%)
- Any TEAE, number of occurrences [1]: 148 E
- Any TEAE, subjects with event [1]: 46 (100.0%) n (%)
- Arthralgia, subjects with event [1]: 0 n (%)
- Asthenia, number of occurrences [1]: 1 E
- Asthenia, subjects with event [1]: 1 (2.2%) n (%)
- Back pain, number of occurrences [1]: 1 E
- Back pain, subjects with event [1]: 1 (2.2%) n (%)
- Blood pressure diastolic increased, number of occurrences [1]: 1 E
- Blood pressure diastolic increased, subjects with event [1]: 1 (2.2%) n (%)
- Bruxism, number of occurrences [1]: 2 E
- Bruxism, subjects with event [1]: 2 (4.3%) n (%)
- Cardiac disorders, number of occurrences [1]: 29 E
- Cardiac disorders, subjects with event [1]: 19 (41.3%) n (%)
- Catheter site haematoma, subjects with event [1]: 0 n (%)
- Catheter site swelling, subjects with event [1]: 0 n (%)
- Change in sustained attention, number of occurrences [1]: 1 E
- Change in sustained attention, subjects with event [1]: 1 (2.2%) n (%)
- Chest discomfort, number of occurrences [1]: 1 E
- Chest discomfort, subjects with event [1]: 1 (2.2%) n (%)
- Chest pain, subjects with event [1]: 0 n (%)
- Claustrophobia, subjects with event [1]: 0 n (%)
- Cough, subjects with event [1]: 0 n (%)
- Decreased appetite, number of occurrences [1]: 3 E
- Decreased appetite, subjects with event [1]: 3 (6.5%) n (%)
- Defaecation urgency, number of occurrences [1]: 1 E
- Defaecation urgency, subjects with event [1]: 1 (2.2%) n (%)
- Diarrhoea, number of occurrences [1]: 1 E
- Diarrhoea, subjects with event [1]: 1 (2.2%) n (%)
- Disturbance in attention, number of occurrences [1]: 1 E
- Disturbance in attention, subjects with event [1]: 1 (2.2%) n (%)
- Dizziness, subjects with event [1]: 0 n (%)
- Dry mouth, number of occurrences [1]: 6 E
- Dry mouth, subjects with event [1]: 6 (13.0%) n (%)
- Dry throat, number of occurrences [1]: 3 E
- Dry throat, subjects with event [1]: 3 (6.5%) n (%)
- Dysgeusia, subjects with event [1]: 0 n (%)
- Dysmenorrhoea (menstrual cramps), number of occurrences [1]: 1 E
- Dysmenorrhoea (menstrual cramps), subjects with event [1]: 1 (2.2%) n (%)
- Dyspepsia, subjects with event [1]: 0 n (%)
- Ecchymosis (skin discoloration), subjects with event [1]: 0 n (%)
- Energy increased, number of occurrences [1]: 2 E
- Energy increased, subjects with event [1]: 2 (4.3%) n (%)
- Epistaxis (nosebleed), subjects with event [1]: 0 n (%)
- Euphoric mood, number of occurrences [1]: 29 E
- Euphoric mood, subjects with event [1]: 29 (63.0%) n (%)
- Eye disorders, number of occurrences [1]: 3 E
- Eye disorders, subjects with event [1]: 3 (6.5%) n (%)
- Eye irritation, number of occurrences [1]: 1 E
- Eye irritation, subjects with event [1]: 1 (2.2%) n (%)
- Eye pain, subjects with event [1]: 0 n (%)
- Fatigue, number of occurrences [1]: 3 E
- Fatigue, subjects with event [1]: 3 (6.5%) n (%)
- Feeling hot, number of occurrences [1]: 3 E
- Feeling hot, subjects with event [1]: 3 (6.5%) n (%)
- Feeling of relaxation, subjects with event [1]: 0 n (%)
- Flushing, number of occurrences [1]: 1 E
- Flushing, subjects with event [1]: 1 (2.2%) n (%)
- Gastrointestinal disorders, number of occurrences [1]: 10 E
- Gastrointestinal disorders, subjects with event [1]: 9 (19.6%) n (%)
- General disorders and administration site conditions, number of occurrences [1]: 13 E
- General disorders and administration site conditions, subjects with event [1]: 12 (26.1%) n (%)
- Haematoma, number of occurrences [1]: 1 E
- Haematoma, subjects with event [1]: 1 (2.2%) n (%)
- Head discomfort, subjects with event [1]: 0 n (%)
- Headache, number of occurrences [1]: 7 E
- Headache, subjects with event [1]: 7 (15.2%) n (%)
- Hyperhidrosis, number of occurrences [1]: 3 E
- Hyperhidrosis, subjects with event [1]: 3 (6.5%) n (%)
- Hypervigilance, number of occurrences [1]: 16 E
- Hypervigilance, subjects with event [1]: 16 (34.8%) n (%)
- Hypopnoea (shallow breathing), number of occurrences [1]: 1 E
- Hypopnoea (shallow breathing), subjects with event [1]: 1 (2.2%) n (%)
- Infections and infestations, subjects with event [1]: 0 n (%)
- Investigations, number of occurrences [1]: 1 E
- Investigations, subjects with event [1]: 1 (2.2%) n (%)
- Irritability, subjects with event [1]: 0 n (%)
- Lacrimation increased, subjects with event [1]: 0 n (%)
- Metabolism and nutrition disorders, number of occurrences [1]: 3 E
- Metabolism and nutrition disorders, subjects with event [1]: 3 (6.5%) n (%)
- Muscle tightness, number of occurrences [1]: 2 E
- Muscle tightness, subjects with event [1]: 2 (4.3%) n (%)
- Muscle twitching, number of occurrences [1]: 1 E
- Muscle twitching, subjects with event [1]: 1 (2.2%) n (%)
- Musculoskeletal and connective tissue disorders, number of occurrences [1]: 5 E
- Musculoskeletal and connective tissue disorders, subjects with event [1]: 4 (8.7%) n (%)
- Nasal congestion, number of occurrences [1]: 1 E
- Nasal congestion, subjects with event [1]: 1 (2.2%) n (%)
- Nasal discomfort, number of occurrences [1]: 3 E
- Nasal discomfort, subjects with event [1]: 3 (6.5%) n (%)
- Nasal dryness, subjects with event [1]: 0 n (%)
- Nausea, number of occurrences [1]: 1 E
- Nausea, subjects with event [1]: 1 (2.2%) n (%)
- Neck pain, number of occurrences [1]: 1 E
- Neck pain, subjects with event [1]: 1 (2.2%) n (%)
- Nervous system disorders, number of occurrences [1]: 10 E
- Nervous system disorders, subjects with event [1]: 9 (19.6%) n (%)
- Obsessive-compulsive disorder, number of occurrences [1]: 1 E
- Obsessive-compulsive disorder, subjects with event [1]: 1 (2.2%) n (%)
- Palpitations, number of occurrences [1]: 11 E
- Palpitations, subjects with event [1]: 11 (23.9%) n (%)
- Peripheral swelling, number of occurrences [1]: 1 E
- Peripheral swelling, subjects with event [1]: 1 (2.2%) n (%)
- Pharyngeal hypoaesthesia (numbness of throat), number of occurrences [1]: 1 E
- Pharyngeal hypoaesthesia (numbness of throat), subjects with event [1]: 1 (2.2%) n (%)
- Pharyngitis, subjects with event [1]: 0 n (%)
- Phlebitis superficial, subjects with event [1]: 0 n (%)
- Phonophobia (fear of loud noises), number of occurrences [1]: 1 E
- Phonophobia (fear of loud noises), subjects with event [1]: 1 (2.2%) n (%)
- Photophobia, number of occurrences [1]: 1 E
- Photophobia, subjects with event [1]: 1 (2.2%) n (%)
- Psychiatric disorders, number of occurrences [1]: 54 E
- Psychiatric disorders, subjects with event [1]: 41 (89.1%) n (%)
- Pyrexia, subjects with event [1]: 0 n (%)
- Reproductive system and breast disorders, number of occurrences [1]: 2 E
- Reproductive system and breast disorders, subjects with event [1]: 2 (4.3%) n (%)
- Respiratory, thoracic and mediastinal disorders, number of occurrences [1]: 12 E
- Respiratory, thoracic and mediastinal disorders, subjects with event [1]: 10 (21.7%) n (%)
- Restlessness, number of occurrences [1]: 2 E
- Restlessness, subjects with event [1]: 2 (4.3%) n (%)
- Rhinorrhoea (runny nose), subjects with event [1]: 0 n (%)
- Sinus tachycardia, number of occurrences [1]: 7 E
- Sinus tachycardia, subjects with event [1]: 7 (15.2%) n (%)
- Skin and subcutaneous tissue disorders, number of occurrences [1]: 4 E
- Skin and subcutaneous tissue disorders, subjects with event [1]: 4 (8.7%) n (%)
- Skin erosion, number of occurrences [1]: 1 E
- Skin erosion, subjects with event [1]: 1 (2.2%) n (%)
- Sneezing, subjects with event [1]: 0 n (%)
- Somnolence, number of occurrences [1]: 2 E
- Somnolence, subjects with event [1]: 2 (4.3%) n (%)
- Tachycardia, number of occurrences [1]: 9 E
- Tachycardia, subjects with event [1]: 8 (17.4%) n (%)
- Testis discomfort, number of occurrences [1]: 1 E
- Testis discomfort, subjects with event [1]: 1 (2.2%) n (%)
- Throat irritation, number of occurrences [1]: 3 E
- Throat irritation, subjects with event [1]: 3 (6.5%) n (%)
- Upper-airway cough syndrome, subjects with event [1]: 0 n (%)
- Vascular disorders, number of occurrences [1]: 2 E
- Vascular disorders, subjects with event [1]: 2 (4.3%) n (%)
- Ventricular extrasystoles, number of occurrences [1]: 2 E
- Ventricular extrasystoles, subjects with event [1]: 2 (4.3%) n (%)
- Vessel puncture site bruise, number of occurrences [1]: 1 E
- Vessel puncture site bruise, subjects with event [1]: 1 (2.2%) n (%)
- Vessel puncture site pain, number of occurrences [1]: 1 E
- Vessel puncture site pain, subjects with event [1]: 1 (2.2%) n (%)
- Visual impairment, number of occurrences [1]: 1 E
- Visual impairment, subjects with event [1]: 1 (2.2%) n (%)
- Vomiting, subjects with event [1]: 0 n (%)
